{"source": "paper PMC6573034", "about": "(Nature Communications, 2019)", "key": {"SfMCT [1]": {"target": "T1, SfMCT (Syntrophobacter fumaroxidans, UniProt A0LNN5)", "T1 construct": "expressed in transfected cells; host or cells: E. coli JA202 (MC4100 glcA::cat lldP::kan), plasmid pEXT20-SfMCT-3C-10His", "T1 sequence (A0LNN5 1-412)": "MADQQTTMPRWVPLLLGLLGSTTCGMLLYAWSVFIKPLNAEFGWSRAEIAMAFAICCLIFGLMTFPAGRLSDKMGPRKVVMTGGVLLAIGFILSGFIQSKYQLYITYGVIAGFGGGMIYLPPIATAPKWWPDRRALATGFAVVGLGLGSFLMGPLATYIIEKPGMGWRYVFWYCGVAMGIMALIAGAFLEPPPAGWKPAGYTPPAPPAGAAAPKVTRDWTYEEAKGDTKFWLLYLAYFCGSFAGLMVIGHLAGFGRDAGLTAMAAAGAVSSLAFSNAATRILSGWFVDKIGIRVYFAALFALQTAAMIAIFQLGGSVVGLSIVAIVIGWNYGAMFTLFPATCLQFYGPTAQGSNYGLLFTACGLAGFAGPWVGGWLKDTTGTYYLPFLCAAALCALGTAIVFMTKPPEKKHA", "assay_type": "cell-based", "conditions": "competitor 1 mM", "description": "The cultures were grown at 37 °C and 180 r.p.m. in an incubator shaker (Multitron, Infors HT). Protein expression was induced at OD600 ~0.5 by addition of IPTG to a final concentration of 0.25 mM. After 4 h, bacteria were pelleted (5,200 × g, 10 min, room temperature) and resuspended in uptake buffer (20 mM Bis-Tris propane-HCl (pH 6.7), 250 mM KCl) to a bacteria density of OD600 12. […] Furthermore, [3-3 H] propionic acid sodium salt ([^3H]propionate, American Radiolabeled Chemicals, specific activity 30 Ci/mmol), n-[2,3-3 H] butyric acid sodium salt ([^3H]butyrate, American Radiolabeled Chemicals, specific activity 120 Ci/mmol), and [1–14 C] pyruvic acid sodium salt ([^14C]pyruvate, specific activity 0.055 Ci/mmol American Radiolabeled Chemicals) were also used for transport experiments. […] Uptake experiments were performed in 2 ml reaction tubes (Eppendorf) at 30 °C under agitation (1,000 r.p.m., Thermomixer compact, Eppendorf). […] Bacteria were immediately pelleted by centrifugation (21,000 × g, 4 min, room temperature) and washed two times with 900 μl stop buffer. Finally, bacteria were lyzed in 50 μl 5% (w/v) sodium dodecylsulfate and transferred into a white 96-well plate (Optiplate, PerkinElmer). 150 µl of scintillation cocktail (MicroScint 40, PerkinElmer) were added before measuring each reaction for 2 min with a scintillation counter (TopCount NXT, PerkinElmer). For data analysis, the signal of the empty vector was subtracted from the transporter signal. […] Cpm values of each experiment were normalized with respect to the determined upper plateau value, i.e., the fitted upper plateau value corresponds to 100%. The arithmetic average of three independent experiments was calculated. Three independent and normalized pH-dependence curves were then averaged. For data analysis Prism6 (GraphPad Software) was used. […] Equal amounts of bacteria expressing SfMCT variants were loaded on 14% SDS/polyacrylamide gels. His-tagged transporters were detected using an anti-His5 (Qiagen, catalogue number 34660, primary antibody) at a dilution of 1:3,000 and a goat anti-mouse IgG (H + L) HRP conjugate antibody (Biorad, catalogue number 172-1011, secondary antibody) at a dilution of 1:2,500."}, "SfMCT [2]": {"target": "T1, SfMCT", "test": "Uptake of [14C]L-lactate and other radiolabeled monocarboxylates into SfMCT expressing E. coli JA202", "assay_type": "cell-based", "conditions": "for Net uptake of [14C]L-lactate through SfMCT (cpm): SfMCT minus vector"}, "MCT2 (SLC16A7)": {"system": "MCT2 (SLC16A7)", "conditions": "MCT2, L-lactate; cited from earlier work"}, "MCT1 (SLC16A1)": {"system": "MCT1 (SLC16A1)", "conditions": "MCT1, L-lactate; cited from earlier work"}, "MCT3 (SLC16A8)": {"system": "MCT3 (SLC16A8)", "conditions": "MCT3, L-lactate; cited from earlier work"}, "MCT4 (SLC16A3)": {"system": "MCT4 (SLC16A3)", "conditions": "MCT4, L-lactate; cited from earlier work"}}, "data": [{"compound": "C[C@H](O)C(=O)O", "note": "[L-lactate]", "values": [{"measurement": "competition with [14C]L-lactate uptake (in words)", "setting": "SfMCT [1]", "value": "strongest competition"}, {"measurement": "Uptake of [14C]L-lactate by SfMCT (cpm)", "setting": "SfMCT [2]; Time 5 min", "value": 1353.33, "unit": "cpm"}, {"measurement": "Net uptake of [14C]L-lactate through SfMCT (cpm)", "setting": "SfMCT [2]; Time 5 min", "value": 969, "unit": "cpm"}, {"measurement": "Uptake of [14C]L-lactate by SfMCT (cpm)", "setting": "SfMCT [2]; Time 10 min", "value": 2978.67, "unit": "cpm"}, {"measurement": "Net uptake of [14C]L-lactate through SfMCT (cpm)", "setting": "SfMCT [2]; Time 10 min", "value": 2373.33, "unit": "cpm"}, {"measurement": "Uptake of [14C]L-lactate by SfMCT (cpm)", "setting": "SfMCT [2]; Time 20 min", "value": 6015, "unit": "cpm"}, {"measurement": "Net uptake of [14C]L-lactate through SfMCT (cpm)", "setting": "SfMCT [2]; Time 20 min", "value": 4812, "unit": "cpm"}, {"measurement": "Uptake of [14C]L-lactate by SfMCT (cpm)", "setting": "SfMCT [2]; Time 40 min", "value": 11074.3, "unit": "cpm"}, {"measurement": "Net uptake of [14C]L-lactate through SfMCT (cpm)", "setting": "SfMCT [2]; Time 40 min", "value": 8600.33, "unit": "cpm"}, {"measurement": "Uptake of [14C]L-lactate by SfMCT (cpm)", "setting": "SfMCT [2]; Time 50 min", "value": 12325, "unit": "cpm"}, {"measurement": "Net uptake of [14C]L-lactate through SfMCT (cpm)", "setting": "SfMCT [2]; Time 50 min", "value": 9196.33, "unit": "cpm"}, {"measurement": "Uptake of [14C]L-lactate by SfMCT (cpm)", "setting": "SfMCT [2]; Time 60 min", "value": 13920.3, "unit": "cpm"}, {"measurement": "Net uptake of [14C]L-lactate through SfMCT (cpm)", "setting": "SfMCT [2]; Time 60 min", "value": 9981.67, "unit": "cpm"}, {"measurement": "Uptake of [14C]L-lactate by SfMCT (cpm)", "setting": "SfMCT [2]; Time 75 min", "value": 16014.3, "unit": "cpm"}, {"measurement": "Net uptake of [14C]L-lactate through SfMCT (cpm)", "setting": "SfMCT [2]; Time 75 min", "value": 10856.3, "unit": "cpm"}, {"measurement": "Uptake of [14C]L-lactate by SfMCT (cpm)", "setting": "SfMCT [2]; Time 90 min", "value": 17840, "unit": "cpm"}, {"measurement": "Net uptake of [14C]L-lactate through SfMCT (cpm)", "setting": "SfMCT [2]; Time 90 min", "value": 10528.3, "unit": "cpm"}, {"measurement": "Uptake of [14C]L-lactate", "setting": "SfMCT [2]; [L-lactate] 10 µM", "value": 8.303, "unit": "pmol"}, {"measurement": "Uptake of [14C]L-lactate", "setting": "SfMCT [2]; [L-lactate] 50 µM", "value": 59.1431, "unit": "pmol"}, {"measurement": "Uptake of [14C]L-lactate", "setting": "SfMCT [2]; [L-lactate] 100 µM", "value": 109.881, "unit": "pmol"}, {"measurement": "Uptake of [14C]L-lactate", "setting": "SfMCT [2]; [L-lactate] 175 µM", "value": 163.284, "unit": "pmol"}, {"measurement": "Uptake of [14C]L-lactate", "setting": "SfMCT [2]; [L-lactate] 250 µM", "value": 201.312, "unit": "pmol"}, {"measurement": "Uptake of [14C]L-lactate", "setting": "SfMCT [2]; [L-lactate] 625 µM", "value": 266.195, "unit": "pmol"}, {"measurement": "Km", "setting": "MCT2 (SLC16A7)", "value": "~0.7", "unit": "mM"}, {"measurement": "Km", "setting": "MCT1 (SLC16A1)", "value": "3 to 5", "unit": "mM"}, {"measurement": "Km", "setting": "MCT3 (SLC16A8)", "value": "~6", "unit": "mM"}, {"measurement": "Km", "setting": "MCT4 (SLC16A3)", "value": "20 to 35", "unit": "mM"}]}]}
